{"source": "paper PMC9817970", "about": "(Cancers, 2022)", "experiment_in_all_cases": "Kinase panel profiling", "type_in_all_cases": "biochemical", "settings_in_all_cases": "10 μM ATP", "key": {"PKCeta": {"target": "T1, PKCeta (Homo sapiens, UniProt P24723)", "T1 construct": "purchased Reaction Biology Corp", "T1 sequence (P24723 whole entry)": "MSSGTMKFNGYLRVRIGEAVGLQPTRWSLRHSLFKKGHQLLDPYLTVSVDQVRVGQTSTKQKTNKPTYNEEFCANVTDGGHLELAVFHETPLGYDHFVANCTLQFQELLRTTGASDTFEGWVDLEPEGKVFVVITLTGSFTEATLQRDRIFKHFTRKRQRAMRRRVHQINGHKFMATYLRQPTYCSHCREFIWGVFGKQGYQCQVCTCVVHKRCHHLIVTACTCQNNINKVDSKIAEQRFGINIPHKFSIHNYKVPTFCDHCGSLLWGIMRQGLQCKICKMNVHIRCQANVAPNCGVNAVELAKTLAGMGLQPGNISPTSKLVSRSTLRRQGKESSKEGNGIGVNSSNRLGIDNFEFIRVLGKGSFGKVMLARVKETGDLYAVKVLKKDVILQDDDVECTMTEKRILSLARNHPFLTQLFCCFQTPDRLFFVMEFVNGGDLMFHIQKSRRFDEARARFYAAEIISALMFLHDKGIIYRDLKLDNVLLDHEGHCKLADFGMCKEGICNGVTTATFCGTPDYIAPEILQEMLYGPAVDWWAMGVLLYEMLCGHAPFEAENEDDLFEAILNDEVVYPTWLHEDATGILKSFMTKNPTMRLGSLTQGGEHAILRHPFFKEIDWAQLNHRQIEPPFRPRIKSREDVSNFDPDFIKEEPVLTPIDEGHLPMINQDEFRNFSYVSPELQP", "method": "(§1) Kinase panel profiling was conducted by Reaction Biology Corp. (San Diego, CA, USA). A single dose (1.0 μM) of 6r was tested against 371 recombinant human kinases in the presence of 10 μM ATP."}, "CDK14/cyclin Y (PFTK1)": {"target": "T2, CDK14/cyclin Y (PFTK1) (Homo sapiens, UniProt O94921)", "T2 construct": "purchased Reaction Biology Corp", "T2 sequence (O94921 whole entry)": "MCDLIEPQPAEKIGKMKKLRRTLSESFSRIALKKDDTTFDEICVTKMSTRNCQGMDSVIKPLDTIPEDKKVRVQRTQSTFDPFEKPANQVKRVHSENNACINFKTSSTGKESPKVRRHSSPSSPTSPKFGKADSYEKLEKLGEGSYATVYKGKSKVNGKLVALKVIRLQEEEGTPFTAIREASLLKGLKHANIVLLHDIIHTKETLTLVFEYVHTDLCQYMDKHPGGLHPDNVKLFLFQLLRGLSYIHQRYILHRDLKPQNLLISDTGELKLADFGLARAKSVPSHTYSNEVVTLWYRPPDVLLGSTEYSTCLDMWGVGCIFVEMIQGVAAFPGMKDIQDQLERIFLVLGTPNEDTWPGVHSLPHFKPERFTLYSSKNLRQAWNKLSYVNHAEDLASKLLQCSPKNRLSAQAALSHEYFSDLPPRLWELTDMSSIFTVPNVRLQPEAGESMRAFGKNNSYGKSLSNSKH", "T2 sequence (Q8ND76 whole entry partner)": "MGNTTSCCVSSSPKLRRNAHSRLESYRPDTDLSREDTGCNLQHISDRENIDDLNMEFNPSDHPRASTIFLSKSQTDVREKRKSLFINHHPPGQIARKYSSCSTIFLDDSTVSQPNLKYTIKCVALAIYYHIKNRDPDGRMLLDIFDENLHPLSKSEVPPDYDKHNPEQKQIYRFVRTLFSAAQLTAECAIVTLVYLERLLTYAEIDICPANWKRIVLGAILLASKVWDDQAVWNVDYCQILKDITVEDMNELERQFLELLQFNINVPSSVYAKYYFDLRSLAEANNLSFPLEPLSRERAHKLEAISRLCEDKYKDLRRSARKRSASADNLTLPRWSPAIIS", "method": "as §1"}, "LRRK2": {"target": "T3, LRRK2 (Homo sapiens, UniProt Q5S007)", "T3 construct": "purchased Reaction Biology Corp", "method": "as §1"}, "TEC": {"target": "T4, TEC (Homo sapiens, UniProt P42680)", "T4 construct": "purchased Reaction Biology Corp", "method": "as §1"}, "AURORA C": {"target": "T5, AURORA C (Homo sapiens, UniProt Q9UQB9)", "T5 construct": "purchased Reaction Biology Corp", "method": "as §1"}, "STK25/YSK1": {"target": "T6, STK25/YSK1 (Homo sapiens, UniProt O00506)", "T6 construct": "purchased Reaction Biology Corp", "T6 sequence (O00506 whole entry)": "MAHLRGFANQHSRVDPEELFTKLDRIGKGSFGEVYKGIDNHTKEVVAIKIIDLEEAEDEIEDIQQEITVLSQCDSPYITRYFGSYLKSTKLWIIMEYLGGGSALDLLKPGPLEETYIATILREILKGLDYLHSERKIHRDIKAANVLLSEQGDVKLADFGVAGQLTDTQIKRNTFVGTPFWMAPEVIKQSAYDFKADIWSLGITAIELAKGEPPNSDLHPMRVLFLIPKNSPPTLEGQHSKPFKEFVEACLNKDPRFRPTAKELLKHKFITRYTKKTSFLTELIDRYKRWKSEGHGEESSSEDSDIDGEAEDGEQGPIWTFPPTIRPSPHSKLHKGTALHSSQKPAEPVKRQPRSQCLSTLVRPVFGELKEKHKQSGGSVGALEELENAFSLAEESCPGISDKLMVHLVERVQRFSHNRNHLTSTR", "method": "as §1"}, "SIK3": {"target": "T7, SIK3 (Homo sapiens, UniProt Q9Y2K2)", "T7 construct": "purchased Reaction Biology Corp", "method": "as §1"}, "EPHA5": {"target": "T8, EPHA5 (Homo sapiens, UniProt P54756)", "T8 construct": "purchased Reaction Biology Corp", "method": "as §1"}, "FAK/PTK2": {"target": "T9, FAK/PTK2 (Homo sapiens, UniProt Q05397)", "T9 construct": "purchased Reaction Biology Corp", "method": "as §1"}, "NEK4": {"target": "T10, NEK4 (Homo sapiens, UniProt P51957)", "T10 construct": "purchased Reaction Biology Corp", "method": "as §1"}, "CLK1": {"target": "T11, CLK1 (Homo sapiens, UniProt P49759)", "T11 construct": "purchased Reaction Biology Corp", "method": "as §1"}, "MKK4": {"target": "T12, MKK4 (Homo sapiens, UniProt P45985)", "T12 construct": "purchased Reaction Biology Corp", "T12 sequence (P45985 whole entry)": "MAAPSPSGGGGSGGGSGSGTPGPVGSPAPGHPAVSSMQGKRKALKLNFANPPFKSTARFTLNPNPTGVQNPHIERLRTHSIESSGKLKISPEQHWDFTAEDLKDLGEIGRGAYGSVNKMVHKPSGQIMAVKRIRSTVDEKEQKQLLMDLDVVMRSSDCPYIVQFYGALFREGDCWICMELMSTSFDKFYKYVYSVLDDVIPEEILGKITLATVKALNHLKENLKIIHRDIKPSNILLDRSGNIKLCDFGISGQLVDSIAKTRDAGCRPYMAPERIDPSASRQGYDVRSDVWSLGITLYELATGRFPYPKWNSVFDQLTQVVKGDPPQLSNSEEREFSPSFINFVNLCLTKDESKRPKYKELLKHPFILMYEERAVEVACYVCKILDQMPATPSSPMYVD", "method": "as §1"}, "MYO3A": {"target": "T13, MYO3A (Homo sapiens, UniProt Q8NEV4)", "T13 construct": "purchased Reaction Biology Corp", "method": "as §1"}, "FRK/PTK5": {"target": "T14, FRK/PTK5 (Homo sapiens, UniProt P42685)", "T14 construct": "purchased Reaction Biology Corp", "T14 sequence (P42685 whole entry)": "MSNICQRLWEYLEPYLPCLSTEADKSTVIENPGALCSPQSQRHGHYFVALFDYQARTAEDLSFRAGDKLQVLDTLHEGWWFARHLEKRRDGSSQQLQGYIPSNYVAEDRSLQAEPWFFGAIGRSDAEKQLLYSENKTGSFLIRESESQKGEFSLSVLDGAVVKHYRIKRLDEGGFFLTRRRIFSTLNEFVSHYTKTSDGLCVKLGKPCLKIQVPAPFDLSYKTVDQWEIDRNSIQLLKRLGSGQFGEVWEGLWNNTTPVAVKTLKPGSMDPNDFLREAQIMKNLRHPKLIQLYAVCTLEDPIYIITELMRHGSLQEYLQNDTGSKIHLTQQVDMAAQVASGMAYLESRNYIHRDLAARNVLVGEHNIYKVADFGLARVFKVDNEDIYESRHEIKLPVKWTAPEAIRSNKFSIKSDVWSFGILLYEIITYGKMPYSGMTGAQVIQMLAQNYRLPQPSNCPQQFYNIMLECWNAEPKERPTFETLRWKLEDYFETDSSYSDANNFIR", "method": "as §1"}, "TXK": {"target": "T15, TXK (Homo sapiens, UniProt P42681)", "T15 construct": "purchased Reaction Biology Corp", "method": "as §1"}, "HPK1/MAP4K1": {"target": "T16, HPK1/MAP4K1 (Homo sapiens, UniProt Q92918)", "T16 construct": "purchased Reaction Biology Corp", "method": "as §1"}, "PKCtheta": {"target": "T17, PKCtheta (Homo sapiens, UniProt Q04759)", "T17 construct": "purchased Reaction Biology Corp", "method": "as §1"}, "P38a/MAPK14": {"target": "T18, P38a/MAPK14 (Homo sapiens, UniProt Q16539)", "T18 construct": "purchased Reaction Biology Corp", "method": "as §1"}, "DDR1": {"target": "T19, DDR1 (Homo sapiens, UniProt Q08345)", "T19 construct": "purchased Reaction Biology Corp", "method": "as §1"}, "MLK4": {"target": "T20, MLK4 (Homo sapiens, UniProt Q5TCX8)", "T20 construct": "purchased Reaction Biology Corp", "method": "as §1"}, "CAMK1g": {"target": "T21, CAMK1g (Homo sapiens, UniProt Q96NX5)", "T21 construct": "purchased Reaction Biology Corp", "method": "as §1"}, "GRK1": {"target": "T22, GRK1 (Homo sapiens, UniProt Q15835)", "T22 construct": "purchased Reaction Biology Corp", "method": "as §1"}, "PKG1b": {"target": "T23, PKG1b (Homo sapiens, UniProt Q13976)", "T23 construct": "purchased Reaction Biology Corp", "method": "as §1"}, "TRKA": {"target": "T24, TRKA (Homo sapiens, UniProt P04629)", "T24 construct": "purchased Reaction Biology Corp", "method": "as §1"}, "CDK4/cyclin D3": {"target": "T25, CDK4/cyclin D3 (Homo sapiens, UniProt P11802)", "T25 construct": "purchased Reaction Biology Corp", "method": "as §1"}, "PKCb1": {"target": "T26, PKCb1 (Homo sapiens, UniProt P05771)", "T26 construct": "purchased Reaction Biology Corp", "method": "as §1"}, "DYRK1/DYRK1A": {"target": "T27, DYRK1/DYRK1A (Homo sapiens, UniProt Q13627)", "T27 construct": "purchased Reaction Biology Corp", "method": "as §1"}, "CDK9/cyclin T1": {"target": "T28, CDK9/cyclin T1 (Homo sapiens, UniProt P50750)", "T28 construct": "purchased Reaction Biology Corp", "T28 sequence (P50750 whole entry)": "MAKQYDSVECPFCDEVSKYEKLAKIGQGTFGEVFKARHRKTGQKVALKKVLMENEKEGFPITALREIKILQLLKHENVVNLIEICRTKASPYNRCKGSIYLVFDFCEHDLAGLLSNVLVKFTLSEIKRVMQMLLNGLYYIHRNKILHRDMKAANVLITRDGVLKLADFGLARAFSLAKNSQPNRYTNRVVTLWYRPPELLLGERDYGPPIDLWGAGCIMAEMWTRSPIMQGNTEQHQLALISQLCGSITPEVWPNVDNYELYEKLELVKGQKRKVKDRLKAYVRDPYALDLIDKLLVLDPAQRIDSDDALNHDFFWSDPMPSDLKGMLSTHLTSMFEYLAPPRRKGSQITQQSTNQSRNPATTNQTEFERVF", "T28 sequence (O60563 whole entry partner)": "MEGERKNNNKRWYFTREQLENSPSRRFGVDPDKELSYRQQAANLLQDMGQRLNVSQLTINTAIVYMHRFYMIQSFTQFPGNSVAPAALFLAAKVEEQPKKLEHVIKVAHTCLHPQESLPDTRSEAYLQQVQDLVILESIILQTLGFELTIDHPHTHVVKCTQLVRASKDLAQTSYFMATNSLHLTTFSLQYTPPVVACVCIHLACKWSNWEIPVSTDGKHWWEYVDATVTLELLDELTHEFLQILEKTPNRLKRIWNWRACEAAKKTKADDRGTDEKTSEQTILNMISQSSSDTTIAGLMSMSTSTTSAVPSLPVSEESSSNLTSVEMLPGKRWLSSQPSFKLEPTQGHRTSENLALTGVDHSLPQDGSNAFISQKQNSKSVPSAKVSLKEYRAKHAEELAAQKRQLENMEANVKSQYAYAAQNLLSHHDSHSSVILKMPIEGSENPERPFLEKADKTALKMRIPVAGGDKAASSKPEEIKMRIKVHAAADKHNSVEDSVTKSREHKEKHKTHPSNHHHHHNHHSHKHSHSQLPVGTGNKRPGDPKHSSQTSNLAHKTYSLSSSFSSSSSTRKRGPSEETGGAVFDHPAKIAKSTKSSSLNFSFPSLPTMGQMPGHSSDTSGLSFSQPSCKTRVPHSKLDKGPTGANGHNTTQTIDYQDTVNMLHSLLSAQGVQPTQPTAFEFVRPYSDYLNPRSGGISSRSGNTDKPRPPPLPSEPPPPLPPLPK", "method": "as §1"}, "EPHA2": {"target": "T29, EPHA2 (Homo sapiens, UniProt P29317)", "T29 construct": "purchased Reaction Biology Corp", "method": "as §1"}, "ARK5/NUAK1": {"target": "T30, ARK5/NUAK1 (Homo sapiens, UniProt O60285)", "T30 construct": "purchased Reaction Biology Corp", "method": "as §1"}, "MSSK1/STK23": {"target": "T31, MSSK1/STK23 (Homo sapiens, UniProt Q9UPE1)", "T31 construct": "purchased Reaction Biology Corp", "method": "as §1"}, "NEK2": {"target": "T32, NEK2 (Homo sapiens, UniProt P51955)", "T32 construct": "purchased Reaction Biology Corp", "T32 sequence (P51955 whole entry)": "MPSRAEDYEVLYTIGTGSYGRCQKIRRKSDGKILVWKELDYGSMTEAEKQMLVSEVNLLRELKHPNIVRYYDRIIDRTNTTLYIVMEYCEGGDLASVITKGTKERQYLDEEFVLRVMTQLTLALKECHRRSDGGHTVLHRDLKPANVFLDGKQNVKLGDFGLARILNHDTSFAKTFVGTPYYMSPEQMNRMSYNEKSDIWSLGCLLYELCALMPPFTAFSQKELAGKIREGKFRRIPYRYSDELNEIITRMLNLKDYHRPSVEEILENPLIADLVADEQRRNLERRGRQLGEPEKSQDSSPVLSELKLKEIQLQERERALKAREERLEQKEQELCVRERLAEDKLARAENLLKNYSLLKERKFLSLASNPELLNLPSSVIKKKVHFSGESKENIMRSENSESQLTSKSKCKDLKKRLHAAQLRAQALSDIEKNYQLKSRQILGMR", "method": "as §1"}, "STK38/NDR1": {"target": "T33, STK38/NDR1 (Homo sapiens, UniProt Q15208)", "T33 construct": "purchased Reaction Biology Corp", "method": "as §1"}, "CDK18/cyclin Y (PCTK3)": {"target": "T34, CDK18/cyclin Y (PCTK3) (Homo sapiens, UniProt Q07002)", "T34 construct": "purchased Reaction Biology Corp", "T34 sequence (Q07002 whole entry)": "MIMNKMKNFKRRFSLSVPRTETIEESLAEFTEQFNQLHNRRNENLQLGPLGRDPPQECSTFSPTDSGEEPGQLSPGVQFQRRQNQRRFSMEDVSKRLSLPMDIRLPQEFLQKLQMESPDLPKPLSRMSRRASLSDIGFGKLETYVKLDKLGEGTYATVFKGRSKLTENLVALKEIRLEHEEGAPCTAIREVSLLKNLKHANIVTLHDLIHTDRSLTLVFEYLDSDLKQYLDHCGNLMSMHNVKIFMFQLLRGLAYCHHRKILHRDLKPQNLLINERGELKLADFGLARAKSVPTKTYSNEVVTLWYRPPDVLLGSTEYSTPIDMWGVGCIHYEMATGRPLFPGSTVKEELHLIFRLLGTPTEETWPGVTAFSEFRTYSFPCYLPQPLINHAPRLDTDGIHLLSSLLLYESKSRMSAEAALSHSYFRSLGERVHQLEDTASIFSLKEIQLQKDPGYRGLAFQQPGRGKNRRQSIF", "T34 sequence (Q8ND76 whole entry partner)": "as the sequence (Q8ND76 whole entry partner) above", "method": "as §1"}, "DLK/MAP3K12": {"target": "T35, DLK/MAP3K12 (Homo sapiens, UniProt Q12852)", "T35 construct": "purchased Reaction Biology Corp", "method": "as §1"}, "ALK5/TGFBR1": {"target": "T36, ALK5/TGFBR1 (Homo sapiens, UniProt P36897)", "T36 construct": "purchased Reaction Biology Corp", "method": "as §1"}, "EPHB2": {"target": "T37, EPHB2 (Homo sapiens, UniProt P29323)", "T37 construct": "purchased Reaction Biology Corp", "method": "as §1"}, "FLT1/VEGFR1": {"target": "T38, FLT1/VEGFR1 (Homo sapiens, UniProt P17948)", "T38 construct": "purchased Reaction Biology Corp", "method": "as §1"}, "CAMK2a": {"target": "T39, CAMK2a (Homo sapiens, UniProt Q9UQM7)", "T39 construct": "purchased Reaction Biology Corp", "method": "as §1"}, "PIM1": {"target": "T40, PIM1 (Homo sapiens, UniProt P11309)", "T40 construct": "purchased Reaction Biology Corp", "method": "as §1"}, "STK38L/NDR2": {"target": "T41, STK38L/NDR2 (Homo sapiens, UniProt Q9Y2H1)", "T41 construct": "purchased Reaction Biology Corp", "method": "as §1"}, "CAMKK2": {"target": "T42, CAMKK2 (Homo sapiens, UniProt Q96RR4)", "T42 construct": "purchased Reaction Biology Corp", "method": "as §1"}}}
{"compound": "Cc1ccc(NC(=O)c2ccc(CN3CCN(C)CC3)c(C(F)(F)F)c2)cc1-c1cnc2sc(N)nc2c1", "note": "[6r]", "values": [{"measurement": "inhibition at 1 µM", "setting": "PKCeta", "result": 3.1, "unit": "%"}, {"measurement": "inhibition at 1 µM", "setting": "CDK14/cyclin Y (PFTK1)", "result": 0, "unit": "%"}, {"measurement": "inhibition at 1 µM", "setting": "LRRK2", "result": 5.1, "unit": "%"}, {"measurement": "inhibition at 1 µM", "setting": "TEC", "result": 1.6, "unit": "%"}, {"measurement": "inhibition at 1 µM", "setting": "AURORA C", "result": 4.9, "unit": "%"}, {"measurement": "inhibition at 1 µM", "setting": "STK25/YSK1", "result": 9.3, "unit": "%"}, {"measurement": "inhibition at 1 µM", "setting": "SIK3", "result": 0, "unit": "%"}, {"measurement": "inhibition at 1 µM", "setting": "EPHA5", "result": 78.5, "unit": "%"}, {"measurement": "inhibition at 1 µM", "setting": "FAK/PTK2", "result": 7.8, "unit": "%"}, {"measurement": "inhibition at 1 µM", "setting": "NEK4", "result": 25.6, "unit": "%"}, {"measurement": "inhibition at 1 µM", "setting": "CLK1", "result": 0, "unit": "%"}, {"measurement": "inhibition at 1 µM", "setting": "MKK4", "result": 6, "unit": "%"}, {"measurement": "inhibition at 1 µM", "setting": "MYO3A", "result": 15, "unit": "%"}, {"measurement": "inhibition at 1 µM", "setting": "FRK/PTK5", "result": 98.4, "unit": "%"}, {"measurement": "inhibition at 1 µM", "setting": "TXK", "result": 16.8, "unit": "%"}, {"measurement": "inhibition at 1 µM", "setting": "HPK1/MAP4K1", "result": 0, "unit": "%"}, {"measurement": "inhibition at 1 µM", "setting": "PKCtheta", "result": 6.9, "unit": "%"}, {"measurement": "inhibition at 1 µM", "setting": "P38a/MAPK14", "result": 96.5, "unit": "%"}, {"measurement": "inhibition at 1 µM", "setting": "DDR1", "result": 99.9, "unit": "%"}, {"measurement": "inhibition at 1 µM", "setting": "MLK4", "result": 6.5, "unit": "%"}, {"measurement": "inhibition at 1 µM", "setting": "CAMK1g", "result": 20.8, "unit": "%"}, {"measurement": "inhibition at 1 µM", "setting": "GRK1", "result": 16.7, "unit": "%"}, {"measurement": "inhibition at 1 µM", "setting": "PKG1b", "result": 3.3, "unit": "%"}, {"measurement": "inhibition at 1 µM", "setting": "TRKA", "result": 9.7, "unit": "%"}, {"measurement": "inhibition at 1 µM", "setting": "CDK4/cyclin D3", "result": 9.8, "unit": "%"}, {"measurement": "inhibition at 1 µM", "setting": "PKCb1", "result": 10.5, "unit": "%"}, {"measurement": "inhibition at 1 µM", "setting": "DYRK1/DYRK1A", "result": 17.4, "unit": "%"}, {"measurement": "inhibition at 1 µM", "setting": "CDK9/cyclin T1", "result": 0, "unit": "%"}, {"measurement": "inhibition at 1 µM", "setting": "EPHA2", "result": 77.4, "unit": "%"}, {"measurement": "inhibition at 1 µM", "setting": "ARK5/NUAK1", "result": 14.7, "unit": "%"}, {"measurement": "inhibition at 1 µM", "setting": "MSSK1/STK23", "result": 30.6, "unit": "%"}, {"measurement": "inhibition at 1 µM", "setting": "NEK2", "result": 0, "unit": "%"}, {"measurement": "inhibition at 1 µM", "setting": "STK38/NDR1", "result": 17.1, "unit": "%"}, {"measurement": "inhibition at 1 µM", "setting": "CDK18/cyclin Y (PCTK3)", "result": 5.1, "unit": "%"}, {"measurement": "inhibition at 1 µM", "setting": "DLK/MAP3K12", "result": 0, "unit": "%"}, {"measurement": "inhibition at 1 µM", "setting": "ALK5/TGFBR1", "result": 0, "unit": "%"}, {"measurement": "inhibition at 1 µM", "setting": "EPHB2", "result": 38.9, "unit": "%"}, {"measurement": "inhibition at 1 µM", "setting": "FLT1/VEGFR1", "result": 63.7, "unit": "%"}, {"measurement": "inhibition at 1 µM", "setting": "CAMK2a", "result": 16, "unit": "%"}, {"measurement": "inhibition at 1 µM", "setting": "PIM1", "result": 13.6, "unit": "%"}, {"measurement": "inhibition at 1 µM", "setting": "STK38L/NDR2", "result": 6.5, "unit": "%"}, {"measurement": "inhibition at 1 µM", "setting": "CAMKK2", "result": 20.5, "unit": "%"}]}
